Key:
Assay in all cases: RET Enzyme Assay
[1] = biological target: Proto-oncogene tyrosine-protein kinase receptor Ret [G810S] (Homo sapiens, UniProt P07949, G810S)
Protocol: (§1) Compounds of formulas I, la to lx, Ila to IIx, and/or Illa to IIIx are screened for their ability to inhibit wildtype, V804M, and G810S mutant RET kinase using CisBio s HTRF KinEASE -TK assay technology. N-terminal GST tagged recombinant human RET cytoplasmic domain (aa 658-end) from Eurofins (1.25 nM RET; Catalog No. 14-570M) or N-terminal GST tagged recombinant human V804M mutant RET cytoplasmic domain (aa 658-end) from Millipore (1.25 nM enzyme; Catalog No. 14-760) or N-Terminal GST-tagged recombinant human G810S (aa-658-end) (1.25 nM Enzyme; produced in insect cells) is incubated with 62.5 nM TK-substrate biotin (CisBio, part of Catalog No. 62TK0PEC) and 1 mM ATP along with test compound (0.4% final DMSO in the assay) in a IX Cisbuio enzymatic buffer consisting of […], 5 mM MgCh, 0.04% BSA and 0.05% Tween20 in a volume of 10 pL. Compounds are typically prepared in a threefold serial dilution in DMSO and added to the assay to give the appropriate final concentration. After a 40-60 min (40 min for V804M, 60 min for WT and G810S) incubation at 22 °C, the reaction is quenched by adding quench solution (10 pL) containing 7.8 nM Streptavidine-XL665 and 0.5X TK-ab-Cryptate in HTRF detection buffer (all from CisBio, part of Cat. No. 62TK0PEC). After a 60-80 min incubation (60 minutes for WT, 80 minutes for V804M and G810S) at 22 °C, the extent of reaction is determined using a PHERastar plate reader via HTRF detection at excitation/emission 337/665 nm. Percent of inhibition is calculated with 0% inhibition referring to control conditions containing no compound (0.4% DMSO only) and 100% inhibition represented by conditions containing no enzyme. The % inhibition values are fit to a 4 parameter logistic curve, and the determined IC5o value is defined as the estimated concentration of inhibitor at the inflexion point of the fitted curve.

[2] = biological target: Proto-oncogene tyrosine-protein kinase receptor Ret (Homo sapiens, UniProt P07949)
Protocol: as §1

[3] = biological target: Proto-oncogene tyrosine-protein kinase receptor Ret [V804M] (Human, UniProt P07949, V804M)
Protocol: as §1

Measured: IC50

Sequence of Proto-oncogene tyrosine-protein kinase receptor Ret [V804M] (P07949 29-1114 V804M limits assumed): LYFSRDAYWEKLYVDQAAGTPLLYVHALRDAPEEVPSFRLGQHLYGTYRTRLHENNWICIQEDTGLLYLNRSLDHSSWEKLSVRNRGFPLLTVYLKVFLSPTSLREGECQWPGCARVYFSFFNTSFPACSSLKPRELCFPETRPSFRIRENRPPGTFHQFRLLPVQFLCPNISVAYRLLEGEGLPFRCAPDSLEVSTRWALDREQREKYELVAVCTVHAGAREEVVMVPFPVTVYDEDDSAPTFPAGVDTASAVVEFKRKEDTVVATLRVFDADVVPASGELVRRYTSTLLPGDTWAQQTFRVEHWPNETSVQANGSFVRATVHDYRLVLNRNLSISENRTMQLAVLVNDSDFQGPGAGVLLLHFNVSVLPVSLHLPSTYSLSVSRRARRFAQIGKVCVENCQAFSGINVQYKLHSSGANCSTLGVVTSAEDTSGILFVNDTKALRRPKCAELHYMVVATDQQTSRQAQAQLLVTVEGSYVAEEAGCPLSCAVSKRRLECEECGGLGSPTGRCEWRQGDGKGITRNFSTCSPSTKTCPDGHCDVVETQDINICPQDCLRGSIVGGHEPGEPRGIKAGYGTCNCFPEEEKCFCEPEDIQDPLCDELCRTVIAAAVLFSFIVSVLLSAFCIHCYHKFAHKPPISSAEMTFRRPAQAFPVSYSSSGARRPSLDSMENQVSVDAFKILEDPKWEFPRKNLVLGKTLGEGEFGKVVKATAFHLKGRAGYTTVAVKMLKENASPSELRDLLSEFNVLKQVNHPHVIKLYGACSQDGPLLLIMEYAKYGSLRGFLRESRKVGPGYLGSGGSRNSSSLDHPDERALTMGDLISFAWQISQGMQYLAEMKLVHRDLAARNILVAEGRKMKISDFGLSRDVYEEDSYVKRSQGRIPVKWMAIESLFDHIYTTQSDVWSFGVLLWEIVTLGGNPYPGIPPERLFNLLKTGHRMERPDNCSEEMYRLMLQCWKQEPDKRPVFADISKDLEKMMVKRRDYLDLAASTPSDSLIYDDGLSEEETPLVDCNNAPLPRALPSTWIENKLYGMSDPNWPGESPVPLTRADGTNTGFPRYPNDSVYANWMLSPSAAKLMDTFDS
Sequence of Proto-oncogene tyrosine-protein kinase receptor Ret [G810S] (P07949 29-1114 G810S limits assumed): as the sequence (P07949 29-1114 V804M limits assumed) above, with M776V, G782S counted along it
Sequence of Proto-oncogene tyrosine-protein kinase receptor Ret (P07949 whole entry): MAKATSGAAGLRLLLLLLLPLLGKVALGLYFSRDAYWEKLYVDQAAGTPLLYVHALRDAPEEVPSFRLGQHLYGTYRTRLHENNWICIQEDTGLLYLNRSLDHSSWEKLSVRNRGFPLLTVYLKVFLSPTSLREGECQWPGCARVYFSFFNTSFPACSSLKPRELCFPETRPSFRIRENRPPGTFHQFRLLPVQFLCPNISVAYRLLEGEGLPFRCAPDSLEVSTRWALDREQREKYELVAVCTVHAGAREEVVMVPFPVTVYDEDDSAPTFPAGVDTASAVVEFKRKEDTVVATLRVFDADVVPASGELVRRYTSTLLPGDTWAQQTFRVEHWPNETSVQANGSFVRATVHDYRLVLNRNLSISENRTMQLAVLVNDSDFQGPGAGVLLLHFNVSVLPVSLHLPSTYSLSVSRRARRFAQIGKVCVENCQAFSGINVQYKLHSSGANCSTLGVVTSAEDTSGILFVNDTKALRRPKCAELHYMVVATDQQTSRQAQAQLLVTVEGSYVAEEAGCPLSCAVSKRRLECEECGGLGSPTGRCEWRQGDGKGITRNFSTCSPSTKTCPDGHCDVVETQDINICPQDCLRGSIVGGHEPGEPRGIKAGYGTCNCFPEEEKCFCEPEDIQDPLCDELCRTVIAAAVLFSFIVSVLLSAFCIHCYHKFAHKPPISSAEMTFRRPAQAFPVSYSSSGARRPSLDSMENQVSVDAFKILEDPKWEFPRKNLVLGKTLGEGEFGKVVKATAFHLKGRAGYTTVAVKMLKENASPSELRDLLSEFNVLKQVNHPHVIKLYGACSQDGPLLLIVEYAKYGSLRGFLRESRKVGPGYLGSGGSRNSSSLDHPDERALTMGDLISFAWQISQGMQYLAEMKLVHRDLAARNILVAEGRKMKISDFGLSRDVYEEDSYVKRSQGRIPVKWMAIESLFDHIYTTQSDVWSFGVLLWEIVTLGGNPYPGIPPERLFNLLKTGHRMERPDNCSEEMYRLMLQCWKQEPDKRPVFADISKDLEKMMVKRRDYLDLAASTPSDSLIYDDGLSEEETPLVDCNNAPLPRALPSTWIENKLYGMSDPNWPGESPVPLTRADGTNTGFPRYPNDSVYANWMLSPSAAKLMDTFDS

CCC(C)(C)c1cc(NC(=O)Cc2ccc(-c3nn(C(C)C)c(N)c3C(N)=O)nc2)on1 [WO2022098970, Example 303]
< 150 nM: all assays above

CC(C)n1nc(-c2ccc(CC(=O)Nc3cc(C45CC(C(F)(F)F)(C4)C5)no3)cc2)c(C(N)=O)c1N [WO2022098970, Example 153]
< 150 nM: all assays above

CC(C)n1nc(-c2ccc(CC(=O)Nc3cc(C(C)(C)C)on3)nc2)c(C(N)=O)c1N [WO2022098970, Example 318]
< 150 nM: all assays above

CC12CC(c3cc(NC(=O)Cc4ccc(-c5nn(C6(C)CC6)c(N)c5C(N)=O)c(F)c4F)on3)(C1)C2 [WO2022098970, Example 222]
< 150 nM: all assays above

CC(C)n1nc(-c2ccc(CC(=O)Nc3cc(C45CC(F)(C4)C5)no3)cc2)c(C(N)=O)c1N [WO2022098970, Example 4]
< 150 nM: all assays above

CC(C)n1nc(-c2ccc(CC(=O)Nc3cc(C(C)(C)C(F)(F)F)n(C)n3)cc2)c(C(N)=O)c1N [WO2022098970, Example 8]
< 150 nM: all assays above

CC(C)n1nc(-c2cnc(CC(=O)Nc3cc(C(C)(C)C)on3)cn2)c(C(N)=O)c1N [WO2022098970, Example 311]
< 150 nM: all assays above

CC1(n2nc(-c3ccc(CC(=O)Nc4cc(C56CC(F)(C5)C6)no4)c(F)c3F)c(C(N)=O)c2N)CC1 [WO2022098970, Example 221]
< 150 nM: all assays above

CC(C)n1nc(-c2ccc(CC(=O)Nc3cc(C4CCCCC4)no3)cn2)c(C(N)=O)c1N [WO2022098970, Example 301]
< 150 nM: all assays above

CCC(C)(C)c1cc(NC(=O)Cc2cnc(-c3nn(C(C)C)c(N)c3C(N)=O)cn2)on1 [WO2022098970, Example 310]
< 150 nM: all assays above

Cc1ccc(-c2cc(NC(=O)Cc3ccc(-c4nn(C(C)C)c(N)c4C(N)=O)cn3)on2)c(F)c1 [WO2022098970, Example 324]
< 150 nM: all assays above

CC(C)n1nc(-c2ccc(CC(=O)Nc3cc(C4(C)CCCC4)no3)cc2)c(C(N)=O)c1N [WO2022098970, Example 3]
< 150 nM: all assays above

CC1(n2nc(-c3ccc(CC(=O)Nc4cc(C(C)(C)C(F)(F)F)no4)cc3)c(C(N)=O)c2N)CC1 [WO2022098970, Example 6]
< 150 nM: all assays above

CC(C)n1nc(-c2cnc(CC(=O)Nc3cc(-c4ccc(Cl)cc4Cl)no3)cn2)c(C(N)=O)c1N [WO2022098970, Example 308]
< 150 nM: all assays above

CC(C)n1nc(-c2ccc(CC(=O)NC3C=C(C(C)(C)C)SN3)cn2)c(C(N)=O)c1N (configuration not stated) [WO2022098970, Example 10]
< 150 nM: all assays above

CC(C)n1nc(-c2ccc(CC(=O)Nc3cc(-c4ccc(Cl)cc4Cl)no3)nc2)c(C(N)=O)c1N [WO2022098970, Example 316]
< 150 nM: all assays above

CC(C)n1nc(-c2ccc(CC(=O)Nc3cc(C45CC(C4)C5)no3)cc2)c(C(N)=O)c1N [WO2022098970, Example 5]
< 150 nM: all assays above

CC(C)n1nc(-c2ccc(CC(=O)Nc3cccc(C(F)(F)F)c3)cn2)c(C(N)=O)c1N [WO2022098970, Example 292]
< 150 nM: all assays above

CC(C)n1nc(-c2ccc(CC(=O)Nc3cc(CC4(C)CC4)no3)cc2)c(C(N)=O)c1N [WO2022098970, Example 1]
< 150 nM: all assays above

CC(C)n1nc(-c2ccc(CC(=O)Nc3cc(-c4ccccc4)no3)cn2)c(C(N)=O)c1N [WO2022098970, Example 299]
< 150 nM: all assays above

CC(C)n1nc(-c2ccc(CC(=O)Nc3cc(C(C)(F)F)no3)cn2)c(C(N)=O)c1N [WO2022098970, Example 306]
< 150 nM: all assays above

CC(C)n1nc(-c2ccc(CC(=O)Nc3cc(-c4ccc(Cl)cc4Cl)no3)cn2)c(C(N)=O)c1N [WO2022098970, Example 300]
< 150 nM: all assays above

CC(C)n1nc(-c2ccc(CC(=O)Nc3cc(C(C)(C)C(F)(F)F)no3)cc2)c(C(N)=O)c1N [WO2022098970, Example 2]
< 150 nM: all assays above

CC(C)n1nc(-c2ccc(CC(=O)Nc3cc(-c4ccccc4Cl)no3)nc2)c(C(N)=O)c1N [WO2022098970, Example 317]
< 150 nM: all assays above

CC(C)n1nc(-c2ccc(CC(=O)Nc3cc(-c4ccc(Cl)c(F)c4Cl)no3)nc2)c(C(N)=O)c1N [WO2022098970, Example 330]
< 150 nM: all assays above

CC(C)n1nc(-c2ccc(CC(=O)Nc3cc(-c4ccc(F)cc4Cl)no3)cn2)c(C(N)=O)c1N [WO2022098970, Example 302]
< 150 nM: all assays above

CC1(n2nc(-c3ccc(CC(=O)Nc4cc(-c5ccc(F)cc5Cl)no4)cc3)c(C(N)=O)c2N)CC1 [WO2022098970, Example 199]
< 150 nM: all assays above

CC(C)n1nc(-c2ccc(CC(=O)Nc3cc(C4(C)CC4)no3)cc2)c(C(N)=O)c1N [WO2022098970, Example 7]
< 150 nM: all assays above

CC(C)n1nc(-c2ccc(CC(=O)Nc3cc(-c4ccc(Cl)cc4F)no3)nc2)c(C(N)=O)c1N [WO2022098970, Example 321]
< 150 nM: all assays above

CC(C)n1nc(-c2ccc(CC(=O)Nc3cc(CC(C)(C)C)no3)c(F)c2F)c(C(N)=O)c1N [WO2022098970, Example 154]
< 150 nM: all assays above

CC(C)n1nc(-c2ccc(CC(=O)Nc3ccc(CN4CCN(C)CC4)c(C(F)(F)F)c3)nc2)c(C(N)=O)c1N [WO2022098970, Example 329]
< 150 nM: all assays above

CC(C)n1nc(-c2ccc(CC(=O)Nc3cc(C(C)(C)CC(F)(F)F)on3)nc2)c(C(N)=O)c1N [WO2022098970, Example 335]
< 150 nM: all assays above

CC(C)n1nc(-c2ccc(CC(=O)Nc3cc(C(C)(C)C(F)(F)F)on3)cn2)c(C(N)=O)c1N [WO2022098970, Example 293]
< 150 nM: all assays above

CC(C)n1nc(-c2ccc(CC(=O)Nc3cc(C4(C)CCCC4)no3)cn2)c(C(N)=O)c1N [WO2022098970, Example 294]
< 150 nM: all assays above

— BindingDB's records for patent WO2022098970 (Eli Lilly, 2022)
